From patent publication US11279691B2, “Substituted pyridine and pyrazine compounds as PDE4 inhibitors” (Dart Neuroscience LLC, priority 2013, dated 2022)

Target: T1, PDE4D3 (Homo sapiens, UniProt Q08499)
T1 construct: GST
Format: biochemical
Conditions: GST-tagged PDE4D3, 200 nM FAM-cAMP, 11-point dose-response; read-out: PD4d3 pEC50 (converted)

T1 sequence (Q08499 1-673 isoform Q08499-2): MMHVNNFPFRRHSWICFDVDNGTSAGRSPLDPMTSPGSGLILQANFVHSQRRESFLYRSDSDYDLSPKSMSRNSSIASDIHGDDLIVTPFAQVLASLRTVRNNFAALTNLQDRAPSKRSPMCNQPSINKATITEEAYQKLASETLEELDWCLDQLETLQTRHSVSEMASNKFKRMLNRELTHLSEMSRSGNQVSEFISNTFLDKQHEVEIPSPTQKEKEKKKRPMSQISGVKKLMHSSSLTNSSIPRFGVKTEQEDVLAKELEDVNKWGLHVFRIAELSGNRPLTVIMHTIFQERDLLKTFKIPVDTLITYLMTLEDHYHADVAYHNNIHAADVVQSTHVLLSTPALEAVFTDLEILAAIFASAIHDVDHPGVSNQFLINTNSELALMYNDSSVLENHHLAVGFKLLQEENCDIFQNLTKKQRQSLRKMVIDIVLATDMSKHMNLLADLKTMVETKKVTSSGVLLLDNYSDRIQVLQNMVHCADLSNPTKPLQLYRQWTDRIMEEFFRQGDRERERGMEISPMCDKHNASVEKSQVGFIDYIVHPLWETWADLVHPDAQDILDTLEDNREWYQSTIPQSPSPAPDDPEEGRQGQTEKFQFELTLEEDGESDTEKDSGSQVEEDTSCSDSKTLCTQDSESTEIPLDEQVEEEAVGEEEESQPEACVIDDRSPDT

Compound	EC50 [µM]
CCOc1ncc(Cn2nnnc2C)cc1-c1cc(F)cc(OC)c1 [Example 402, 2-Ethoxy-3-(3-fluoro-5-methoxyphenyl)-5-[(5-methyl-1H-1,2,3,4-tetrazol-1-yl)methyl]pyridine]	0.1 to 1
CCOc1ncc(Cn2ccc(C(N)=O)n2)nc1-c1cccc(Cl)c1 [Example 313, 1-{[6-(3-Chlorophenyl)-5-ethoxypyrazin-2-yl]methyl}-1H-pyrazole-3-carboxamide]	0.1 to 1
COc1ncc(Cc2cnc(N)nc2)cc1-c1ccc(F)c(C)c1 [Example 357, 5-{[5-(4-Fluoro-3-methylphenyl)-6-methoxypyridin-3-yl]methyl}pyrimidin-2-amine]	0.1 to 1
CCOc1ncc(Cn2cnc(C(N)=O)c2)nc1-c1ccc(F)c(F)c1 [Example 314, 1-{[6-(3,4-Difluorophenyl)-5-ethoxypyrazin-2-yl]methyl}-1H-imidazole-4-carboxamide]	0.1 to 1
CCOc1cc(-c2cc(Cn3nnnc3C)cnc2OCC)ccn1 [Example 400, 2-Ethoxy-3-(2-ethoxypyridin-4-yl)-5-[(5-methyl-1H-1,2,3,4-tetrazol-1-yl)methyl]pyridine]	0.1 to 1
COc1ncc(Cn2cc(CO)nc2C)cc1-c1cccc(Cl)c1 [Example 346, (1-{[5-(3-Chlorophenyl)-6-methoxypyridin-3-yl]methyl}-2-methyl-1H-imidazol-4-yl)methanol]	0.1 to 1
N#CCc1ncc(Cc2cnc(OCC(F)F)c(-c3cccc(Cl)c3)c2)cn1 [Example 348, 2-(5-{[5-(3-Chlorophenyl)-6-(2,2-difluoroethoxy)pyridin-3-yl]methyl}pyrimidin-2-yl)acetonitrile]	< 0.1
COc1ncc(Cc2cnc(N)nc2)cc1-c1ccnc(C#N)c1 [Example 347, 4-{5-[(2-Aminopyrimidin-5-yl)methyl]-2-methoxypyridin-3-yl}pyridine-2-carbonitrile]	0.1 to 1
COc1ncc(Cc2cnc(C(N)=O)nc2)cc1-c1ccc(F)c(F)c1 [Example 373, 5-{[5-(3,4-Difluorophenyl)-6-methoxypyridin-3-yl]methyl}pyrimidine-2-carboxamide]	0.1 to 1
CCCOc1ncc(Cc2cnc(N)nc2)cc1-c1ccc(F)c(F)c1 [Example 278, 5-((5-(3,4-Difluorophenyl)-6-propoxypyridin-3-yl)methyl)pyrimidin-2-amine]	< 0.1
COc1ncc(Cn2nnnc2CO)cc1-c1ccc(F)cc1 [Example 382, (1-{[5-(4-Fluorophenyl)-6-methoxypyridin-3-yl]methyl}-1H-1,2,3,4-tetrazol-5-yl)methanol]	1 to 10
CCOc1ncc(Cn2nc(CO)cc2C)cc1-c1cccc(Cl)c1 [Example 325, (1-{[5-(3-Chlorophenyl)-6-ethoxypyridin-3-yl]methyl}-5-methyl-1H-pyrazol-3-yl)methanol]	< 0.1
COc1ncc(Cc2cnc(CC#N)nc2)cc1-c1ccc(F)c(F)c1 [Example 358, 2-(5-{[5-(3,4-Difluorophenyl)-6-methoxypyridin-3-yl]methyl}pyrimidin-2-yl)acetonitrile]	< 0.1
COc1ncc(Cc2cnc(NCCO)nc2)cc1-c1cccc(Cl)c1 [Example 391, 2-[(5-{[5-(3-Chlorophenyl)-6-methoxypyridin-3-yl]methyl}pyrimidin-2-yl)amino]ethan-1-ol]	< 0.1
CCOc1ncc(Cc2cnc(CO)c(F)c2)cc1-c1ccnc(OC(F)F)c1 [Example 405, [5-({5-[2-(Difluoromethoxy)pyridin-4-yl]-6-ethoxypyridin-3-yl}methyl)-3-fluoropyridin-2-yl]methanol]	< 0.1
N#CCc1ncn(Cc2cnc(OC(F)F)c(-c3cccc(Cl)c3)c2)n1 [Example 285, 2-(1-{[5-(3-chlorophenyl)-6-(difluoromethoxy)pyridin-3-yl]methyl}-1H-1,2,4-triazol-3-yl)acetonitrile]	0.1 to 1
COc1ncc(Cc2cnc(N)nc2)cc1-c1ccc(F)cc1 [Example 360, 5-{[5-(4-Fluorophenyl)-6-methoxypyridin-3-yl]methyl}pyrimidin-2-amine]	< 0.1
